{"source": "patent US20230033849A1", "about": "“CBD SUNSCREEN FORMULATIONS AND USES THEREOF” (JUPITER WELLNESS, INC., priority 2021, published 2023)", "key": {"[1]": {"test_system": "Human primary epidermal keratinocytes (ATCC PCS 200-011)", "assay": "MTT cell viability assay of keratinocytes after UVB irradiation", "format": "cell-based", "details": "CBD 1 μM, 4 μM and 8 μM for 1 hour before UVB, 10 seconds (approximately 60 mJ/cm^2), cells not treated with CBD 17%", "procedure": "(§1) Human primary epidermal melanocytes (ATCC PCS200-013) and keratinocytes (ATCC PCS 200-011) cell-lines were cultured using serum free complete growth media (ATCC PCS 200-030). Cells were cultured at 37 C.° with 5% CO2. Cells were grown to 80% confluence before being washed with PBS buffer (37° C.) and trypsinized with EDTA-trypsin. A small aliquot of cells was stained with Trypan blue and counted using a haemocytometer. The remaining cells were plated in a 24 well plate with 300 uL of complete growth media (ATCC) for UV experimentation. Approximately 27*10^3 cells were added to each well. Twenty-four hours after inoculation, individual wells were treated with one of three different concentrations of CBD isolate (CBD Brands, Jupiter, Fla.) or left untreated (control). The concentrations of CBD used were 1 μM, 4 μM and 8 μM, respectively.\nAfter CBD treatment for 1 hour, all cells were washed and with chilled (4° C.) PBS buffer. […] Exposure times were determined prior to the experiment, empirically, by exposing different wells to increasing UV exposure time and next conducting an MTT assay. […] The chosen exposure time was based on the exposure time that led to greater than 40% cell viability versus untreated cells determined by MTT assay. […] After exposure the effect of CBD on cell viability was evaluated by an MTT assay. […]"}, "[2]": {"test_system": "Human primary epidermal melanocytes (ATCC PCS200-013)", "assay": "MTT cell viability assay of melanocytes after UVB irradiation", "format": "cell-based", "details": "Melanocyte, light or radiation study, approximately 60 mJ/cm^2, 0 μM control 16%, read-out: viability after UV irradiation", "procedure": "as §1\nAfter CBD treatment for 1 hour, all cells were washed and with chilled (4° C.) PBS buffer. UV exposure experiments were conducted in chilled PBS buffer to avoid heat stress. Cells were irradiated with UVB light (Dermalight 80, UVB lamp). The distance of the lamp to the wells of the plate was kept constant at 3 cm. Exposure times were determined prior to the experiment, empirically, by exposing different wells to increasing UV exposure time and next conducting an MTT assay. […] The chosen exposure time was based on the exposure time that led to greater than 40% cell viability versus untreated cells determined by MTT assay. CBD treated cells were exposed to UV light for this predetermined time of 10 seconds (approximately 60 mJ/cm^2). After exposure the effect of CBD on cell viability was evaluated by an MTT assay. Control cells were cultured in parallel with no CBD treatment, but underwent UVB irradiation."}}, "data": [{"smiles": "C=C(C)[C@@H]1CCC(C)=C[C@H]1c1c(O)cc(CCCCC)cc1O", "note": "[CBD, cannabidiol]", "values": [{"measurement": "cell viability after irradiation with UVB", "setting": "[1]", "result": "dose dependent increase in cell viability"}, {"measurement": "viability at 1 µM", "setting": "[2]; 1 μM CBD for 1 hour before UVB", "result": 48, "unit": "%"}, {"measurement": "viability at 4 µM", "setting": "[2]; 4 μM CBD for 1 hour before UVB", "result": 65, "unit": "%"}, {"measurement": "viability at 8 µM", "setting": "[2]; 8 μM CBD for 1 hour before UVB", "result": 12, "unit": "%"}]}]}
